Reference: ChEMBL document CHEMBL5729033, “Macrocyclic compounds that inhibit MCL-1 protein” (2022)

Target: Induced myeloid leukemia cell differentiation protein Mcl-1/Bcl-2-like protein 11 (Homo sapiens, UniProt Q07820)
Assay: Cell Free Mcl-1:Bim Affinity Assay (Mcl-1 HTRF): The inhibition of the Mcl-1/Bim interaction was measured using a time-resolved fluorescence resonance energy transfer (TR-FRET) assay. The recombinant human Mcl-1 (C-terminally 6×His tagged Mcl-1 containing residues 171-327) was generated at Amgen Inc (Thousand Oaks, Calif.). A biotinylated peptide derived from human Bim (residues 51-76) was purchased from CPC Scientific (San Jose, Calif.). The TR-FRET assay was conducted in a 384-well white OptiPlate™ (PerkinElmer, Waltham, Mass.) in a total volume of 40 μL. The reaction mixture contained 0.1 nM Mcl-1(171-327), 0.05 nM biotin-Bim(51-76), 0.05 nM LANCES Eu-W1024 Anti-6×His (PerkinElmer), 0.072 nM Streptavidin-Xlent (Cisbio, Bedford, Mass.), and serially diluted test compounds in the binding buffer of 20 mM Hepes, pH 7.5, 150 mM NaCl, 0.016 mM Brij®35, and 1 mM dithiothreitol. Test compounds were pre-incubated with Mcl-1(171-327) and biotin-Bim (51-76) for 60 min before addition of the detection mixture (LANCE® Eu-W1024 Anti-6×His and Streptavidin-Xlent). The reaction plates were further incubated overnight and then were read on an Envision® multimode reader (PerkinElmer). Fluorescence signals were measured at 620 nm (40-nm bandwidth) and 665 nm (7.5-nm bandwidth) with a 60 μs delay after excitation at 320 nm (75-nm bandwidth). […]
Format: protein assay

Sequence of Induced myeloid leukemia cell differentiation protein Mcl-1/Bcl-2-like protein 11 (Q07820 whole entry, the tested form may be a part): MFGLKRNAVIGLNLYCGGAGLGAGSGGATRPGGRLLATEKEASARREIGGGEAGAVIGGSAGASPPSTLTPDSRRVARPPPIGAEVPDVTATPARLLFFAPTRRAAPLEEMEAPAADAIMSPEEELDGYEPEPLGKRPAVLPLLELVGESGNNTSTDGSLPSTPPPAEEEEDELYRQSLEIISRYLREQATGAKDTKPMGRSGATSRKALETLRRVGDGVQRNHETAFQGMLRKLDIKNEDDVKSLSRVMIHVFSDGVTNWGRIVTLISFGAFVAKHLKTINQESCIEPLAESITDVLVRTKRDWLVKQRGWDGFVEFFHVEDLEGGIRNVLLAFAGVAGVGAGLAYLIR
Sequence of Induced myeloid leukemia cell differentiation protein Mcl-1/Bcl-2-like protein 11 (O43521 whole entry, further chain, the tested form may be a part): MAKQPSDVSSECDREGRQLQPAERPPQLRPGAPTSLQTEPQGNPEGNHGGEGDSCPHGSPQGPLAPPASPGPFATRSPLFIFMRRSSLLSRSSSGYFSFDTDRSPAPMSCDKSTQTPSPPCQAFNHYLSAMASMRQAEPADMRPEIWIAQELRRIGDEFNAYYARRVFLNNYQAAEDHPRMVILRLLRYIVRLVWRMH

| IC50 | SMILES |
| --- | --- |
| 1.42 nM | C[C@@H]1[C@@H](C)CCC[C@H](CN2CCN3CCN(C(=O)OC(C)(C)C)C[C@@H]3C2)[C@@H]2CC[C@H]2CN2C[C@@]3(CCCc4cc(Cl)ccc43)COc3ccc(cc32)C(=O)NS1(=O)=O |
| 0.123 nM | C[C@@H]1[C@@H](C)CCC[C@@H](CC(=O)N2CCN3CCOC[C@H]3C2)[C@@H]2CC[C@H]2CN2C[C@@]3(CCCc4cc(Cl)ccc43)COc3ccc(cc32)C(=O)NS1(=O)=O |
